Results published in US5925528A, “Murine cell lines which over produce acidic fibroblast growth factor (aFGF) and method of using same” (Ohio State University Research Foundation, priority 1997, dated 1999).
“Also recorded” adds a separate entry of the source.

Tests used:
[1] = test system: sense transfectants (Tr31-5-1, Tr33-1-2, Tr34-4-1 and Tr34-1-1); assay: Mitogenic response ([3H]thymidine) of sense transfectants compared with parental NIH/3T3 cells; type: cell-based, mouse
Method: (§1) FIG. 12 is a graph showing the mitogenic effects of different growth factors to various transfected cell lines. Cells were grown to confluence, changed to Dulbecco's modified Eagle medium containing 0.5% calf serum and grown for two more days. Different growth factors or calf serum was then added to the medium to stimulate cells to grow. [^3 H]thymidine was added 18 hours after addition of the mitogens and cells were incubated for another 6 hours. Bovine aFGF (b-aFGF) represents the truncated forms while human aFGF purified from Tr31-5-1 (rh-aFGF) represents the full-length protein. Cell lines, Tr31-5-1, 33-1-2, 34-1-1, and 34-4-1 are NIH/3T3 derivatives containing the aFGF cDNA construct in the positive orientation; whereas Tr31-11-1 contains aFGF cDNA in the anti-sense orientation.
(§2) Cells transfected with the EDNA coding for the full-length human aFGF were compared with the parental NIH/3T3 cells by determining their responses to various mitogens. […] Therefore, the lack of mitogenic response of Tr31-5-1 and Tr33-1-2 to rh-aFGF is not likely due to the trivial explanation of a defective mitogen. Thus, Tr31-5-1 and Tr33-1-2 may have lost some component of the pathway and these cell lines provide a unique means for elucidating the components responsive to the full-length aFGF.

newt KGFR [2] = assay: Binding assay (Scatchard plot) using KPTr2-2 cells and 125I-aFGF; set-up: species or system newt (Notophthalamus viridescens); conditions: KPTr2-2 cells, read-out: Kd of newt KGFR toward human aFGF
Source text: (§3) Binding assays using KPTr2-2 and ^125 I-aFGF have been carried out. […] The Kd is slightly higher than the typical sub-nM range of mammalian KGFR. However, this may reflect the species difference since we used a human ligand for the newt receptor.

NIH/3T3 cells = assay: Mitogenic response ([3H]thymidine) of NIH/3T3 cells; type: cell-based, mouse
Method: as §1, §2

Swiss/3T3 cells = assay: Mitogenic response ([3H]thymidine) of Swiss/3T3 cells; type: cell-based
Tr31-5-1 cells = assay: Mitogenic response ([3H]thymidine) of Tr31-5-1 cells; type: cell-based, mouse; conditions: listed as full-length aFGF
Method: as §1, §2

Tr33-1-2 cells = assay: Mitogenic response ([3H]thymidine) of Tr33-1-2 cells; type: cell-based, mouse; conditions: listed as full-length aFGF
Method: as §1, §2

newt KGFR [3] = assay: Competition assay using KPTr2-2 and 125I-aFGF; type: binding, newt (Notophthalamus viridescens); conditions: KPTr2-2 cells, compared with aFGF
Source text: as §3

newt KGFR [4] = assay: Crosslinking of 125I-aFGF to CHO-K1 cells over-expressing newt KGFR (KPTr2-2), competition with excess cold ligand; type: binding, newt (Notophthalamus viridescens); conditions: 500-fold molar excess of cold ligand, KPTr2-2 cells
Method: CHO cells transfected with pBJ5 vector (lane 1) or with newt KGFR expression vector (lanes 2-4) were crosslinked with ^125 I-aFGF using 0.3 mM disuccinimidyl suberate (DSS). Excess amounts (500-fold) of aFGF (lane 3) or KGF (lane 4) were used to compete with ^125 I-aFGF. Crosslinked products were analyzed on a 7.5% SDS-polyacrylamide gel.
To characterize the newt FGFR EDNA functionally, the newt KGFR were expressed in CHO-K1 cells. The mammalian expression vector, pBJ5, which contains a chimeric promoter derived from HTLV-I and SV40, was used to express the newt KGFR and FGFR2 cDNA. […] The crosslinked product is absent in KPTr1-8, the CHO cells that were transfected with the pBJ5 vector alone. The crosslinked product thus appears to be specific. Similarly, a cell line over-expressing the human KGFR (T-1063-29-2 from S. A. Aaronson, NIH) was able to produce a somewhat smaller crosslinked product than the newt KGFR. Antibodies (both monoclonal and polyclonal) directed against a peptide from the carboxyl terminus of the newt FGFR2 are generated.

With PDGF [reference compound] the “mitogenic response relative to parental NIH/3T3 cells” value ([1]; sense transfectants Tr31-5-1, Tr33-1-2, Tr34-4-1 and Tr34-1-1) was “stronger mitogenic responses than NIH/3T3 cells”.

“human aFGF: human aFGF purified from Tr31-5-1 (rh-aFGF) represents the full-length protein” was tested, and the Kd (newt KGFR [2]) was 1.3 nM, the mitogenic response (NIH/3T3 cells) was “responded to the mitogenic stimulation” and the mitogenic response (Swiss/3T3 cells) was “responded to the mitogenic stimulation”. For the same molecule, the mitogenic response (Tr31-5-1 cells) was “failed to give any mitogenic responses; also recorded: do not respond”, the mitogenic response (Tr33-1-2 cells) was “failed to give any mitogenic responses; also recorded: do not respond” and the “mitogenic response relative to parental NIH/3T3 cells” value ([1]; sense transfectants with the exception of Tr33-1-2) was “respond less strongly than the parental NIH/3T3 cells”.

In the case of “human recombinant bFGF: human recombinant basic fibroblast growth factor”, the “competition with 125I-aFGF” value (newt KGFR [3]) is reported as “does not compete as well as aFGF”.

B1: human recombinant KGF: human recombinant keratinocyte growth factor (protein, UniProt P21781 32-194, looked up)
Fibroblast growth factor 7: CNDMTPEQMATNVNCSSPERHTRSYDYMEGGDIRVRRLFCRTQWYLRIDKRGKVKGTQEMKNNYNIMEIRTVAVGIVAIKGVESEFYLAMNKEGKLYAKKECNEDCNFKELILENHYNTYASAKWTHNGGEMFVALNQKGIPVRGKKTKKEQKTAHFLPMAIT
B1 was tested, and the “competition of the 150 kDa crosslinked product” value (newt KGFR [4]) was “successfully competed off”.
